Counter-ions that a name gives are not always drawn.
Assay: Particle size distribution by laser diffraction (Sympatec Helos)
Assay type: physicochemical
Conditions: laser diffraction at 1 bar dispersive pressure
Text: As used herein, “particle size distribution” means the cumulative volume size distribution of equivalent spherical diameters as determined by laser diffraction at 1 bar dispersive pressure in a Sympatec Helos equipment. “Median particle size”, correspondingly, means the median of said particle size distribution. When the term “Escitalopram” is used it covers Escitalopram as well as a pharmaceutically acceptable salt and/or a pharmaceutically acceptable solvate thereof.

- median particle size: about 6.65 μm
- ratio between the median particle size and the particle size at the 95% quantile: about 0.61
Structure (SMILES): CN(C)CCC[C@@]1(c2ccc(F)cc2)OCc2cc(C#N)ccc21 [Escitalopram oxalate, (S)-1-[3-(dimethylamino)propyl]-1-(4-fluorophenyl)-1,3-dihydro-5-isobenzofurancarbonitrile]

Reference: US20120288712A1, “ESCITALOPRAM AND SOLID PHARMACEUTICAL COMPOSITION COMPRISING THE SAME” (ratiopharm GmbH, priority 2006, published 2012)
